# In the NIST ThermoML archive (doi:10.1016/j.jct.2011.12.022):
# “And” between values parts separate entries of the source, which are not always exact repeats. Identical values can stand only once. Numbers after ± are expanded uncertainties.
# Experiment: mn = molality of the nth substance listed, in mol/kg
# Details: 101 kPa, Liquid, Pycnometric method
smiles,measurement,setting,value
"CN(C)C(=N)NC(=N)N.Cl [N,N-dimethylimidodicarbonimidic diamide hydrochloride] + O",mass density,"288.15 K, m1 = 0.0309",1000.34 ± 0.36 kg/m3
same,mass density,"288.15 K, m1 = 0.0416",1000.77 ± 0.36 kg/m3
same,mass density,"288.15 K, m1 = 0.0506",1001.17 ± 0.36 kg/m3
same,mass density,"288.15 K, m1 = 0.0608",1001.55 ± 0.36 kg/m3
same,mass density,"288.15 K, m1 = 0.0712",1001.9 ± 0.36 kg/m3
same,mass density,"288.15 K, m1 = 0.0815",1002.31 ± 0.36 kg/m3
same,mass density,"288.15 K, m1 = 0.0922",1002.71 ± 0.36 kg/m3
same,mass density,"288.15 K, m1 = 0.1028",1003.21 ± 0.36 kg/m3
same,mass density,"288.15 K, m1 = 0.1138",1003.39 ± 0.36 kg/m3
same,mass density,"288.15 K, m1 = 0.1207",1003.71 ± 0.36 kg/m3
same,mass density,"288.15 K, m1 = 0.1527",1004.89 ± 0.36 kg/m3
same,mass density,"298.15 K, m1 = 0.029",998.2 ± 0.37 kg/m3
same,mass density,"298.15 K, m1 = 0.0415",998.7 ± 0.38 kg/m3
same,mass density,"298.15 K, m1 = 0.0508",999.07 ± 0.38 kg/m3
same,mass density,"298.15 K, m1 = 0.0592",999.42 ± 0.38 kg/m3
same,mass density,"298.15 K, m1 = 0.0725",999.91 ± 0.38 kg/m3
same,mass density,"298.15 K, m1 = 0.0769",1000.1 ± 0.38 kg/m3
same,mass density,"298.15 K, m1 = 0.0904",1000.51 ± 0.37 kg/m3
same,mass density,"298.15 K, m1 = 0.1072",1001.13 ± 0.38 kg/m3
same,mass density,"298.15 K, m1 = 0.1191",1001.63 ± 0.37 kg/m3 and 1001.57 ± 0.37 kg/m3
same,mass density,"298.15 K, m1 = 0.1303",1002 ± 0.38 kg/m3
same,mass density,"308.15 K, m1 = 0.0306",995.14 ± 0.42 kg/m3
same,mass density,"308.15 K, m1 = 0.0404",995.53 ± 0.42 kg/m3
same,mass density,"308.15 K, m1 = 0.0514",995.89 ± 0.42 kg/m3
same,mass density,"308.15 K, m1 = 0.058",996.2 ± 0.42 kg/m3
same,mass density,"308.15 K, m1 = 0.0704",996.6 ± 0.42 kg/m3
same,mass density,"308.15 K, m1 = 0.0811",996.95 ± 0.42 kg/m3
same,mass density,"308.15 K, m1 = 0.0915",997.53 ± 0.42 kg/m3
same,mass density,"308.15 K, m1 = 0.1014",997.74 ± 0.42 kg/m3
same,mass density,"308.15 K, m1 = 0.1218",998.62 ± 0.42 kg/m3
same,mass density,"308.15 K, m1 = 0.152",999.56 ± 0.42 kg/m3
CNC(=C[N+](=O)[O-])NCCSCc1ccc(CN(C)C)o1.Cl [ranitidine hydrochloride] + O,mass density,"288.15 K, m1 = 0.0202",1000.92 ± 0.37 kg/m3
same,mass density,"288.15 K, m1 = 0.0306",1001.78 ± 0.37 kg/m3
same,mass density,"288.15 K, m1 = 0.0407",1002.69 ± 0.37 kg/m3
same,mass density,"288.15 K, m1 = 0.0488",1003.32 ± 0.37 kg/m3
same,mass density,"288.15 K, m1 = 0.0602",1004.33 ± 0.37 kg/m3
same,mass density,"288.15 K, m1 = 0.0702",1005.27 ± 0.37 kg/m3
same,mass density,"288.15 K, m1 = 0.0813",1006.23 ± 0.38 kg/m3
same,mass density,"288.15 K, m1 = 0.092",1007.13 ± 0.38 kg/m3
same,mass density,"288.15 K, m1 = 0.1019",1007.93 ± 0.38 kg/m3
same,mass density,"288.15 K, m1 = 0.1149",1009.12 ± 0.38 kg/m3
same,mass density,"288.15 K, m1 = 0.1521",1012.15 ± 0.38 kg/m3
same,mass density,"298.15 K, m1 = 0.0103",997.99 ± 0.38 kg/m3
same,mass density,"298.15 K, m1 = 0.0198",998.81 ± 0.38 kg/m3
same,mass density,"298.15 K, m1 = 0.0295",999.58 ± 0.38 kg/m3
same,mass density,"298.15 K, m1 = 0.0501",1001.38 ± 0.38 kg/m3
same,mass density,"298.15 K, m1 = 0.0603",1002.17 ± 0.39 kg/m3
same,mass density,"298.15 K, m1 = 0.0697",1002.94 ± 0.39 kg/m3
same,mass density,"298.15 K, m1 = 0.0789",1003.7 ± 0.39 kg/m3
same,mass density,"298.15 K, m1 = 0.0907",1004.69 ± 0.39 kg/m3
same,mass density,"298.15 K, m1 = 0.0994",1005.38 ± 0.39 kg/m3
same,mass density,"298.15 K, m1 = 0.1171",1006.83 ± 0.4 kg/m3
same,mass density,"298.15 K, m1 = 0.1475",1009.32 ± 0.4 kg/m3
same,mass density,"308.15 K, m1 = 0.0109",994.91 ± 0.42 kg/m3
same,mass density,"308.15 K, m1 = 0.0191",995.59 ± 0.43 kg/m3
same,mass density,"308.15 K, m1 = 0.0313",996.62 ± 0.43 kg/m3
same,mass density,"308.15 K, m1 = 0.0428",997.58 ± 0.43 kg/m3
same,mass density,"308.15 K, m1 = 0.0507",998.2 ± 0.43 kg/m3
same,mass density,"308.15 K, m1 = 0.059",998.85 ± 0.43 kg/m3
same,mass density,"308.15 K, m1 = 0.0695",999.78 ± 0.43 kg/m3
same,mass density,"308.15 K, m1 = 0.0876",1001.15 ± 0.43 kg/m3
same,mass density,"308.15 K, m1 = 0.0986",1002.15 ± 0.43 kg/m3
same,mass density,"308.15 K, m1 = 0.119",1003.69 ± 0.43 kg/m3
same,mass density,"308.15 K, m1 = 0.1483",1006.01 ± 0.44 kg/m3
COc1cccc([C@@]2(O)CCCC[C@@H]2CN(C)C)c1.Cl [tramadol hydrochloride] + O,mass density,"288.15 K, m1 = 0.0138",999.75 ± 0.36 kg/m3
same,mass density,"288.15 K, m1 = 0.026",1000.36 ± 0.36 kg/m3
same,mass density,"288.15 K, m1 = 0.0298",1000.53 ± 0.36 kg/m3
same,mass density,"288.15 K, m1 = 0.04",1001.04 ± 0.36 kg/m3
same,mass density,"288.15 K, m1 = 0.0536",1001.72 ± 0.37 kg/m3
same,mass density,"288.15 K, m1 = 0.0604",1002.03 ± 0.36 kg/m3
same,mass density,"288.15 K, m1 = 0.0702",1002.51 ± 0.36 kg/m3
same,mass density,"288.15 K, m1 = 0.0805",1002.96 ± 0.36 kg/m3
same,mass density,"288.15 K, m1 = 0.0903",1003.44 ± 0.37 kg/m3
same,mass density,"288.15 K, m1 = 0.099",1003.81 ± 0.37 kg/m3
same,mass density,"288.15 K, m1 = 0.1207",1004.82 ± 0.37 kg/m3
same,mass density,"288.15 K, m1 = 0.1511",1006.21 ± 0.37 kg/m3
same,mass density,"298.15 K, m1 = 0.0114",997.56 ± 0.37 kg/m3
same,mass density,"298.15 K, m1 = 0.0211",998.02 ± 0.38 kg/m3
same,mass density,"298.15 K, m1 = 0.0296",998.42 ± 0.38 kg/m3
same,mass density,"298.15 K, m1 = 0.0403",998.93 ± 0.38 kg/m3
same,mass density,"298.15 K, m1 = 0.0501",999.29 ± 0.38 kg/m3
same,mass density,"298.15 K, m1 = 0.0607",999.82 ± 0.38 kg/m3
same,mass density,"298.15 K, m1 = 0.0804",1000.74 ± 0.38 kg/m3
same,mass density,"298.15 K, m1 = 0.0923",1001.23 ± 0.38 kg/m3
same,mass density,"298.15 K, m1 = 0.1016",1001.66 ± 0.38 kg/m3
same,mass density,"298.15 K, m1 = 0.1183",1002.31 ± 0.38 kg/m3
same,mass density,"298.15 K, m1 = 0.149",1003.78 ± 0.38 kg/m3
same,mass density,"308.15 K, m1 = 0.0117",994.5 ± 0.42 kg/m3
same,mass density,"308.15 K, m1 = 0.0195",994.81 ± 0.42 kg/m3
same,mass density,"308.15 K, m1 = 0.0299",995.32 ± 0.42 kg/m3
same,mass density,"308.15 K, m1 = 0.0399",995.75 ± 0.42 kg/m3
same,mass density,"308.15 K, m1 = 0.0493",996.19 ± 0.42 kg/m3
same,mass density,"308.15 K, m1 = 0.06",996.6 ± 0.42 kg/m3
same,mass density,"308.15 K, m1 = 0.0717",997.13 ± 0.42 kg/m3
same,mass density,"308.15 K, m1 = 0.082",997.64 ± 0.42 kg/m3
same,mass density,"308.15 K, m1 = 0.0912",997.99 ± 0.42 kg/m3
same,mass density,"308.15 K, m1 = 0.1",998.39 ± 0.42 kg/m3
same,mass density,"308.15 K, m1 = 0.1181",999.15 ± 0.42 kg/m3
same,mass density,"308.15 K, m1 = 0.1501",1000.52 ± 0.43 kg/m3
